Here are results for 6 compounds from patent publication US8772502B2, “Alkylsulfinyl-substituted thiazolide compounds” (Romark Laboratories, L.C., priority 2010, dated 2014).

Values joined by “and” are separate entries in the source; they are usually repeats but may differ in a detail not shown here. Equal entries are not always repeated. “Also recorded” adds a separate entry of the source. Where two headings read alike, the source gives them in different places.

Data set [1] concerns Huh7 cells containing HCV replicon H/FL-Neo. The data set is described as follows: Secondary HCV replicon assay, genotype 1A, cytotoxicity (neutral red dye uptake). Particulars: secondary assay, genotype 1A; neutral red dye uptake. How it is done:
(§1) Antiviral activity of test compounds was assessed in a 3-day assay using the stably-expressing HCV replicon cell line, AVA5 (sub-genomic CON1, genotype 1b) [Korba, B. E. et al. Antiviral Res. 77, 56-63 (2008); Blight et al., Science 290, 1972-1974 (2000)] maintained as sub-confluent cultures on 96-well plates as previously described [Okuse et al., Antiviral Research 65, 23-34 (2005)]. Antiviral activity was determined by blot hybridization analysis of intracellular HCV RNA (normalized to the level of cellular B-actin RNA in each culture sample) and cytotoxicity was assessed by neutral red dye uptake after 3 days of treatment. Additional studies were performed using Huh7 cells containing another HCV replicon, H/FL-Neo, a genotype 1a full length construct [Blight et al., J. Virol. 77, 3181-3190 (2003)]. For studies involving human serum, standard culture medium (which contains 10% fetal bovine serum) and assay conditions were maintained.
(§2) EC50, EC90 and CC50 values (±standard deviations [S.D.]) were calculated by linear regression analysis using data combined from all treated cultures (Korba, B. E. et al. Antiviral Res. 77, 56-63 (2008)). […] Selectivity index (S.I.) was calculated as CC50/EC90 for HBV assays and CC50/EC50 for HCV assays.
A general note: Replicon systems follow genome replication, usually without infectious particles.

Data set [2] deals with HCV replicon cell line, AVA5. The data set is described as follows: Secondary HCV replicon assay, genotype 1B, cytotoxicity (neutral red dye uptake). Particulars: secondary assay, genotype 1B; neutral red dye uptake. On the procedure: as §1, §2
Data set [3] relates to HCV replicon cell line, AVA5 (sub-genomic CON1, genotype 1b). In words: Secondary HCV replicon assay, genotype 1B, antiviral activity. Type of data set: cell-based. How it is done: as §1, §2
For data set [4], the system named is HCV replicon cell line, AVA5. The data set is described as follows: Primary HCV replicon assay, cytotoxicity (neutral red dye uptake). Particulars: primary assay; neutral red dye uptake after 3 days. How it is done: as §1, §2
Data set [5] concerns HCV replicon, H/FL-Neo, a genotype 1a full length construct. In words: Secondary HCV replicon assay, genotype 1A, antiviral activity. Type of data set: cell-based. On the procedure:
as §1, §2

Data set [6] deals with HCV replicon cell line, AVA5 (sub-genomic CON1, genotype 1b). The data set is described as follows: Primary HCV replicon assay, antiviral activity (intracellular HCV RNA). It is filed as cell-based. On the procedure: as §1, §2
Data set [7] can be described thus: Primary HCV replicon assay, cytotoxicity (neutral red dye uptake). Particulars: human. How it is done: as §1, §2
In the next data set the test system is cellular esterases. In words: Metabolic stability of acetate prodrugs under the cell assay conditions. Type of data set: in vitro ADME.
For data set [8] the following is noted: cited from earlier work.
Another data set concerns J6/JFH-1 HCV. The data set is described as follows: Infectious genotype 2a cell culture assay (HCV replication by RT-PCR). Type of data set: cell-based. Particulars: for efficacy with regards to HCV replication: Huh7.5/JFH-1 HCV cell culture system; for inhibition of J6/JFH-1 HCV replication: 1 μM test concentration. On the procedure:
(§3) Genotype 2a antiviral assays were conducted as previously described [Lindenbach, B. D.; Rice, C. M. et al. Science, 309, 623-626 (2005)]. […] Cell viability was determined using the Calcein assay kit (Biotium, Inc. Hayward, Calif., USA). The alternate method for measuring cell cytotoxicity was via the Guava Technologies ViaCount assay (Millipore) The ViaCount Assay provides rapid and reliable determinations of viability and total cell count. It distinguishes viable and non-viable cells based on differential permeabilities of two DNA-binding dyes in the Guava ViaCount® Reagent. The nuclear dye stains only nucleated cells, while the viability dye brightly stains dying cells. This combination of dyes enables the Guava ViaCount Assay to distinguish viable, apoptotic, and dead cells. Debris is excluded from results based on negative staining with the nuclear dye.
HCV replication levels were determined by RT-PCR on RNA from cell culture supernatants. J6-infected Huh 7.5 cells were seeded in 12-well plates at a density of 2.0E^5 cells/well in 1.5 mL of DMEM supplemented with 10% FBS and 1% Pen/Strep. […] A positive control of IFN-α at concentrations of 10 IU/mL and 50 IU/mL, negative control wells containing mock incubations of DMEM with 1 uL and 10 uL (the same volume of the molecular compounds at 1 uM and 10 uM, respectively) of DMSO was included to rule out nonspecific effects of DMSO on the cells, and J6-infected with only DMEM were used as negative controls. A final control group consisted of un-infected Huh 7.5 cells, plated at the same time and density as the J6-infected cells on a separate plate. 48 hours and 120 hours after incubation with thiazolides, the media was collected and frozen, cells were washed 2× with PBS, and lysed in 500 uL of lysis buffer per well. Following lysis, RNA was extracted from the cells using the RNAqueous-4PCR Kit from Ambion, and the RNA concentration determined using the NanoDrop® machine. Reverse-transcription reactions produced 1.5 μg of cDNA per sample, which was then used for rt-PCR to quantify the HCV viral load in each sample. Analysis of the rt-PCR results generated the fold increases and decreases of the HCV viral load in comparison to untreated J6 cells.

A further data set concerns Huh 7.5 cells. The data set is described as follows: Cytotoxicity in the infectious genotype 2a cell culture assay. Type of data set: cell-based. On the procedure:
as §3

A further data set concerns cytochrome P450 enzymes. Particulars: cited from earlier work.
Data set [9] is described as follows: Secondary HCV replicon assay, genotype 1A, cytotoxicity (neutral red dye uptake). Particulars: human. On the procedure: as §1, §2
A short description of data set [10]: Secondary HCV replicon assay, genotype 1B, cytotoxicity (neutral red dye uptake). Particulars: human. How it is done: as §1, §2
Where [11] appears, read: primary assay, 2-fold depression of intracellular HCV RNA, read-out: EC50.
The mark [12] stands for this setting: primary assay, 10-fold depression of intracellular HCV RNA, read-out: EC90.
[13] abbreviates: Hepatitis C virus, Ava5, primary assay, 2-fold depression of intracellular HCV RNA, read-out: EC50.
Where [14] appears, read: Hepatitis C virus, Ava5, primary assay, 10-fold depression of intracellular HCV RNA, read-out: EC90.

The term CC50 denotes the concentration that lowers cell viability or growth by half. Read a low CC50 as greater toxicity to the cells. In general, EC50 refers to the midpoint of the concentration-response curve. Broadly, the EC90 is the concentration at which the effect reaches the 90% level. As for `CS(=O)(=O)c1cnc(NC(=O)c2ccccc2O)s1` [RM4863], the 50% cytotoxic concentration (CC50) was above 10 µM in [1], above 10 µM in data set [2] and 43 µM in [4]. Moreover, the EC50 in data set [3] turned out to be 900 nM; in [5] it was 800 nM; in data set [6] (setting [11]), 1500 nM. Besides, the concentration for an effect of 90% (EC90) in data set [3] amounted to 8.8 µM; in [5], 3400 nM; in data set [6] (setting [12]) it was 5.2 µM.

In data set [7], `CC(=O)Oc1ccccc1C(=O)Nc1nc([S+](C)[O-])cs1` (stereo not drawn) [Compound 1, 2-(4-(methylsulfinyl)thiazol-2-ylcarbamoyl)phenyl acetate] registered a CC50 at 3 days above 100 µM. In data set [6] (Hepatitis C virus, Ava5), this compound returned a half-maximal effective concentration (EC50) above 10000 nM and a concentration for an effect of 90% (EC90) above 10 µM.

`CC(=O)Oc1ccccc1C(=O)Nc1ncc(S(C)(=O)=O)s1` [RM4864]: in the data set with cellular esterases, the “metabolic stability (hydrolysis to the parent phenolic drug)” value is listed as “metabolically stable”. The CC50 in [4] was 20 µM. Moreover, the concentration for a half-maximal effect (EC50) in data set [6] (setting [11]) was above 10000 nM. Moreover, in data set [6] (setting [12]), the EC90 was above 10 µM.

Consider `CC(=O)Oc1ccccc1C(=O)Nc1ncc([N+](=O)[O-])s1` [NTZ, Nitazoxanide], for which the 50% cytotoxic concentration (CC50) in [1] came to 49 µM; in data set [2], 35 µM; in [4], 31 µM. The EC50 in [3] (Hepatitis C virus, Ava5) amounted to 250 nM; in data set [5] (Hepatitis C virus), 330 nM; in data set [6] (setting [13]) it was 210 nM. The EC90 in data set [3] (Hepatitis C virus, Ava5) amounted to 0.95 µM; in data set [5] (Hepatitis C virus) it was 1100 nM; in [6] (setting [14]), 0.98 µM. Also, the detection in plasma entry in data set [8] (after oral 500 mg NTZ tablet) is “not detected”. Moreover, the “efficacy with regards to HCV replication” value in the data set on J6/JFH-1 HCV is reported as “demonstrated efficacy”. In the data set with J6/JFH-1 HCV (genotype G2a), the “inhibition of J6/JFH-1 HCV replication” value was “shown to inhibit J6/JFH-1HCV replication”. In addition, the “cytotoxic effect in Huh 7.5 cells” value in the data set on Huh 7.5 cells is listed as “without being cytotoxic; also recorded: Neither of these compounds showed a cytotoxic effect”.

On to `O=C(Nc1ncc([N+](=O)[O-])s1)c1ccccc1O` [TIZ, Tizoxanide], for which the values for the half-maximal cytotoxic concentration (CC50) in data set [1], in data set [2] and in data set [4] were 27 µM, 28 µM and 15 µM, respectively. Also, the concentration giving a half-maximal response (EC50) was 190 nM in [3] (Hepatitis C virus, Ava5); 230 nM in data set [5] (Hepatitis C virus); 150 nM in data set [6] (setting [13]). Moreover, the EC90 in [3] (Hepatitis C virus, Ava5) was determined as 0.92 µM; in data set [5] (Hepatitis C virus) it was 1000 nM; in data set [6] (setting [14]), 0.81 µM. The “inhibition of cytochrome P450 enzymes” value in the data set on cytochrome P450 enzymes is reported as “does not inhibit”. The “part of an oral dose excreted in feces as TIZ” value in data set [8] (oral dose of NTZ, feces) is “Approximately two-thirds”. Further, the “Maximum serum concentrations of TIZ” value in data set [8] (oral, one 500 mg NTZ tablet (Alinia) with food) is “approximately 10 μg/mL and ~37 μM”. Moreover, in data set [8] (plasma), the “elimination half-life of TIZ from plasma” value is “approximately 1.5 hours”.

Take `C[S+]([O-])c1csc(NC(=O)c2ccccc2O)n1` (stereo not drawn) [Compound 2, 2-hydroxy-N-(4-(methylsulfinyl)thiazol-2-yl)benzamide]: the CC50 at 3 days in [9] and in [10] was above 100 µM in each case. Moreover, the EC50 in data set [3] (Hepatitis C virus, Ava5) came out at 2200 nM; in data set [5] (Hepatitis C virus), 2800 nM; in [6] (setting [13]), 2000 nM. In addition, the EC90 in [3] (Hepatitis C virus, Ava5) was 6.1 µM; in data set [5] (Hepatitis C virus), above 5000 nM; in [6] (setting [14]) it was 4.6 µM. It took 63 µM to reach half-maximal cytotoxicity in data set [4] (CC50). Further, in the data set on J6/JFH-1 HCV, the “efficacy with regards to HCV replication” value is given as “demonstrated efficacy”. In the data set on J6/JFH-1 HCV (genotype G2a), the “inhibition of J6/JFH-1 HCV replication” value is on record as “shown to inhibit J6/JFH-1HCV replication”. Further, the “relative potency, % of NTZ” value with J6/JFH-1 HCV (genotype G2a, at 0.1 μM) is given as 88 % of NTZ. Moreover, the “relative activity, % of NTZ” value in the data set on J6/JFH-1 HCV (genotype G2a, at 1 μM) is 95 % of NTZ. Moreover, the “cytotoxic effect in Huh 7.5 cells” value in the data set on Huh 7.5 cells is recorded as “Neither of these compounds showed a cytotoxic effect”; with Huh 7.5 cells (listed as analog 2), “without being cytotoxic”.
